What is called AUC(0-t) is exposure summed from dosing to a finite time, without extrapolation to infinity. A higher AUC(0-t) goes with more exposure. As a reminder, the CL/F is the apparent clearance, not corrected for the fraction that reaches the circulation. The term Cmax denotes the peak of the concentration-time curve. A word on the Tmax: it is the time at which the peak concentration occurs.

Molecules are shown by their SMILES. Entries after “also recorded” stand apart in the source; their conditions may differ.

The nature of data set [1]: DPPH free radical scavenging activity. Format: biochemical. The settings on record: 300 μM DPPH, 37° C., 30 minutes. As for the experimental part: 40 μl of a sample was mixed with 760 μl of 300 μM 2,2-diphenyl-1-picrylhydrazyl (DPPH) and the mixture was incubated at 37° C. for 30 minutes, and then the mixture was aliquoted to each well of a 96-well plate in triplicate and absorbance was measured at 515 nm using a microplate reader. BHT was used as a positive control group.
(In general: DPPH is a stable violet radical that fades when it is reduced.)

Data set [2] in a line: in vivo. The settings on record: rat, po, 100 mg/kg.
In data set [3] the test system is TNF-α. As to the kind of experiment: TNF-α gene expression (real-time PCR) in RAW 264.7 cells. Format: cell-based. The settings on record: normal group (N) 1.01. (In general: Quantitative PCR measures a nucleic acid by following its amplification.)
Description: (§3) To identify the gene expression levels of XBP-1, TNF-α, and IL-6, real-time PCR was performed according to the same method as described in Example 3 except primers.
The test system of data set [4] is PPAR-α. As to the kind of experiment: PPAR-α gene expression (real-time PCR) in RAW 264.7 cells. In kind it is cell-based. Particulars: normal group (N) 1.01. On the procedure:
(§1) Total RNA was separated and purified using TRIsure (Bioline, USA) according to a protocol. 1 μg of total RNAs was subjected to a reverse transcription reaction using a cDNA synthesis kit (Sprint™RT Complete Oligo-(dT)18, Clontech, Mountain View, Calif., USA) according to a protocol for synthesizing first strand cDNA. The produced RT-PCR sample was subjected to real-time PCR reaction, in which the final reaction volume was adjusted to 20 μl and Light Cycler-Fast Start DNA Master SYBR Green (Roche Applied Science, Indianapolis, Ind., USA) and a Light Cycler instrument (Roche Applied Science) were used.
(§2) PCR amplification was performed according to PCR steps, consisting of a pre-incubation step at 95° C. for 10 minutes and 35 (for beta-actin) or 45 (for C/EBPa) cycles of amplification (denaturation at 95° C. for 10 seconds, annealing at 52° C. for 10 seconds, and extension at 72° C. for 15 seconds). Total RNA was separated and purified using TRIsure (Bioline, USA) according to a protocol. 1 μg of total RNAs was subjected to a reverse transcription reaction using a cDNA synthesis kit (Sprint™RT Complete Oligo-(dT)18, Clontech, Mountain View, Calif., USA) according to a protocol for synthesizing first strand cDNA. […]

Data set [5] concerns AMPK-α. Kind of data set: AMPK-α gene expression (real-time PCR) in RAW 264.7 cells. In kind it is cell-based. The settings on record: normal group (N) 0.80. On the procedure:
as §1, §2

Data set [6] has as its system L6 rat myoblast cells. Kind of data set: Glucose uptake assay (2-NBDG). Format: cell-based. The settings on record: 2-NBDG 100 μg/ml; compared to control group / metformin alone. The source says: Undifferentiated L6 rat myoblast cells were differentiated into myotube cells using 2% horse serum. […] When performing measurement, apigenin, a compound that inhibits glucose uptake, was used as a control.

Data set [7] concerns RIN-m5F insulinoma cells. As to the kind of experiment: Insulin secretion assay (rat insulin ELISA). In kind it is cell-based. Particulars: […] metformin with extract, 20 mM glucose. As for the experimental part:
A portion of cell culture supernatant was subjected to centrifugation at 4° C. for 10 minutes, and after centrifugation, a supernatant was collected and stored at −20° C. for further use. The amount of secreted insulin was measured using a rat insulin ELISA kit (Mercodia, Sweden), and an insulin secretion amount per gram of proteins was calculated by measuring the concentration of cellular proteins in each well.
(ELISA stands for enzyme-linked immunosorbent assay.)

Data set [8] deals with 3T3-L1 cells. Kind of data set: Fat cell differentiation (Oil red O staining). In kind it is cell-based. Particulars: compared to control group / metformin alone. On the procedure:
After seeding 3T3-L1 cells into a 6-well plate at a density of 5×10^5 cells/well, the cells were cultured until reaching full confluence. The pre-existing culture medium for the cells was exchanged with DMEM (differentiation media) containing 1 μM dexamethasone, 0.5 mM IBMX, and 10 μg/ml insulin, and the cells were cultured for 48 hours and then were treated with DMEM (maturation media) containing 10 μg/ml insulin to induce differentiation. Differentiation-induced fat cells produced as a result of the process were treated with samples at various concentrations or a positive control group, and inhibitory effects on fat cell differentiation were analyzed using an Oil red O staining method, TG, and a TC assay.

Data set [9] has as its system XBP-1. Kind of data set: XBP-1 gene expression (real-time PCR) in RAW 264.7 cells. Particulars: normal group (N) 1.00. Format: cell-based.
Description: as §3
Data set [10] deals with HepG2 cells. Kind of data set: Intracellular reactive oxygen species (ROS) activity, DHR123/FACS. Format: cell-based. The settings on record: 6 hours, compared to normal group / metformin alone. On the procedure: After centrifugation at 1200 g for 5 minutes, a supernatant was discarded, and the remaining HepG2 cells were treated with 5 μg/ml of DHR123, followed by incubation at 37° C. for 30 minutes. After additional centrifugation for 5 minutes, PBS washing was performed two times and filtration was performed. Intracellular reactive oxygen species activity was measured based on the value of fluorescence intensity obtained from FACS analysis.

In data set [11] the test system is OLETF/LETO rats. Kind of data set: Intraperitoneal insulin tolerance test (IPITT). Format: in vivo, rat. Particulars: metformin 100 mg/kg alone or with 200 mg/kg extract, insulin 1 U/kg IP.
Description: Dietary intakes, body weights, states, and the like were checked weekly, and at 24 weeks, an IPITT was performed using blood collected from the tail veins. After 12 weeks, the rats were sacrificed under anesthesia with an intraperitoneal (IP) injection of Zoletil/Rompun, and fat, each organ sample, and serum were separated. One week prior to the end of the experiments, OLETF/LETO rats were fasted for 15 hours and then administered with 1 U/kg of insulin by intraperitoneal (IP) injection, and then measurement of blood sugar levels was performed using an Accu-Chek blood glucose meter (Roche, USA) on blood samples, which had been collected from the tail vein of each individual by bleeding a small amount of blood at 0, 30, 60, 90, and 120 minutes. The obtained values for blood sugar levels were analyzed using an area under curve (AUC), and the like.
In data set [12] the test system is IL-6. As to the kind of experiment: IL-6 gene expression (real-time PCR) in RAW 264.7 cells. Particulars: normal group (N) 1.11.
Description: as §3
The test system of data set [13] is RAW 264.7 cells. As to the kind of experiment: LPS-induced nitrogen monoxide (NO) generation, GRIESS reaction. Format: cell-based. Particulars: 1 μg/ml LPS, 24 hours, compared to LPS group / metformin alone. On the procedure:
To compare an anti-inflammatory function, an in vitro model of LPS-induced nitrogen monoxide (NO) generation was used in an experiment, and NO measurement was carried out using a cell supernatant based on the GRIESS reaction (Green et al., 1982). RAW 264.7 cells were seeded at a density of 1.5×10^5 cells/ml and pre-treated with samples diluted at various concentrations, and after 1 hour, the pretreated cells were treated with 1 μg/ml of lipopolysaccharide (LPS: Sigma, St Louis, Mo., USA), followed by incubation for 24 hours. 50 μl of a cell culture supernatant and 50 μl of 1% (w/v) sulfanilamide, a GRIESS reagent, were added to each well of a 96-well plate, and the 96-well plate shaded from light was incubated at room temperature for 10 minutes and then 50 μl of 0.1% (w/v) N-1-naphthylethylenediamine dissolved in 2.5% (v/v) phosphoric acid was added to each well of the 96-well plate and mixed, followed by incubation under dark conditions for 10 minutes. Absorbance was read at 540 nm using a microplate reader (Molecular Devices, CA, USA) within 30 minutes after finishing incubation. NO production was calculated using a nitric oxide standard solution.

Consider `Cc1cc(C(C)(C)C)c(O)c(C(C)(C)C)c1` [BHT], for which the “DPPH free radical scavenging IC50” value in [1] came out at 113.85 µg/mL.
In [2] (blood and urine), `CN(C)C(=N)N=C(N)N` [Metformin, metformin] came in with a CL renal of 40.3 ± 13.8 mL/min/kg. Moreover, in data set [2] (blood), the AUC(0-t) was 29000 ng·h/mL, the CL/F came to 54.3 ± 15.4 mL/min/kg, the peak concentration (Cmax) stood at 7650 ± 3100 ng/mL and the Tmax was 1.5 h. The “gene expression level of TNF-α” value in [3] was 1.34. Moreover, in data set [4], the “gene expression level of PPAR-α” value came to 0.68. For the same compound, the “gene expression level of AMPK-α” value in data set [5] was found to be 0.76. The “capacity of glucose uptake” value in data set [6] is on record as “increased capacity of glucose uptake”. Further, the “amount of insulin secretion” value in data set [7] is reported as “significant changes in the amounts of insulin secretion were not observed”. For the same compound, in [8], the “lipid formation attributed to differentiation of 3T3-L1 preadipocytes” value is recorded as “tendency of decreasing lipid formation”. In data set [9], the “gene expression level of XBP-1” value came out at 1.01. For the same compound, in data set [10], the “intracellular ROS activity” value is listed as “tendency of decreasing intracellular reactive oxygen species (ROS) activity”. Besides, the “insulin resistance (IPITT, blood sugar AUC)” value in [11] is listed as “tendency to decrease; also recorded: tendency of decreasing”. Moreover, the “gene expression level of IL-6” value in data set [12] is given as 1.91. In data set [13], the “production amount of nitrogen monoxide” value is recorded as “production amount of nitrogen monoxide was decreased”.

The record behind these values is patent US20170239310A1, “Composition for Promoting Anti-Diabetic and Anti-Obesity Effects, Comprising Herbal Extract” (DONGGUK UNIVERSITY GYEONGJU CAMPUS INDUSTRY- ACADEMY …, priority 2014, published 2017).
